The target of experiment [1] is NAMPT (Homo sapiens (Human), UniProt P43490). The experiment in a line: Biochemical Inhibition Assay (NAMPT enzymatic reaction, NMN quantified by mass spectrometry). Particulars: recombinant His-tagged NAMPT, 33 nM; 1 μM NAM; read-out: Biochem IC50. As to the method: Recombinant His-tagged NAMPT was produced in E. coli cells, purified over a Ni column, and further purified over a size-exclusion column by XTAL Biostructures.
The NAMPT enzymatic reactions were carried out in Buffer A (50 mM Hepes pH 7.5, 50 mM NaCl, 5 mM MgCl2, and 1 mM THP) in 96-well V-bottom plates. The compound titrations were performed in a separate dilution plate by serially diluting the compounds in DMSO to make a 100× stock. […] The compound and enzyme mix was incubated for 15 minutes at room temperature, then 10 μL of 10× substrate and co-factors in Buffer A were added to the test well to make a final concentration of 1 μM NAM, 100 μM 5-Phospho-D-ribose 1-diphosphate (PRPP), and 2.5 mM Adenosine 5′-triphosphate (ATP). The reaction was allowed to proceed for 30 minutes at room temperature, then was quenched with the addition of 11 μL of a solution of formic acid and L-Cystathionine to make a final concentration of 1% formic acid and 10 μM L-Cystathionine. Background and signal strength was determined by addition (or non-addition) of a serial dilution of NMN to a pre-quenched enzyme and cofactor mix.
A mass spectrometry-based assay was used to measure the NAMPT reaction product (NMN) and the internal control (L-Cystathionine). NMN and L-Cystathionine were detected using the services of Biocius Lifesciences with the RapidFire system. In short, the NMN and L-Cystathionine are bound to a graphitic carbon cartridge in 0.1% formic acid, eluted in 30% acetonitrile buffer, and injected into a Sciex 4000 mass spectrometer. The components of the sample were ionized with electrospray ionization and the positive ions were detected. […] The fragments are quantified and the analyzed by the following method.
First the NMN signal is normalized to the L-Cystathionine signal by dividing the NMN signal by the L-Cystathionine signal for each well. The signal from the background wells are averaged and subtracted from the test plates.
Wherein x denotes the average signal of the compound treated wells and y denotes the average signal of the DMSO treated wells.
IC50s are Determined Using Excel and this Formula.
Wherein X denotes the compound concentration 1, Y denotes the compound concentration 2, XX denotes the % inhibition at compound concentration 1 (X), and YY denotes the % inhibition at compound concentration 2 (Y).

Experiment [2] has as its system A2780 cells. Kind of experiment: In-Vitro Cell Proliferation Assay (SRB, 72 hours). Particulars: Homo sapiens, A2780, 72 h, A2780 cells, 72 hours, sulforhodamine B; read-out: A2780 IC50. The format is cell-based. How it is done: After overnight incubation at 37° C. and 5% CO2, the compound titrations were performed in a separate dilution plate by serially diluting the compounds in DMSO to make a 1000× stock. The compounds were then further diluted to 10× final concentration in culture media, whereupon 20 μL of each dilution was added to the plated cells with controls (e.g. DMSO and blank) to make a final volume of 200 μL. The final DMSO concentration in each well was 0.1%. The plates were then incubated for 72 hours at 37° C. in a 5% CO2 incubator. The number of viable cells was then assessed using sulforhodamine B (SRB) assay. Cells were fixed at 4° C. for 1 hour with the addition of 50 μL 30% trichloroacetic acid (TCA) to make a final concentration of 6% TCA. The plates were washed four times with H2O and allowed to dry for at least 1 hour, whereupon 100 μL of a 4% SRB in 1% acetic acid solution was added to each well and incubated at room temperature for at least 30 minutes. The plates were then washed three times with 1% acetic acid, dried, and treated with 100 μL of 10 mM Tris-Base solution. The plates were then read in a microplate reader at an absorbance of 570 nm. Background was generated on a separate plate with media only.
First, the signals from the background plate are averaged and then the background was subtracted from the test plates.
wherein x denotes the average signal of the compound-treated cells and y denotes the average signal of the DMSO-treated cells.
wherein X denotes the compound concentration 1, Y denotes the compound concentration 2, XX denotes the % inhibition at compound concentration 1 (X), and YY denotes the % inhibition at compound concentration 2 (Y).

Chain of NAMPT (P43490 whole entry): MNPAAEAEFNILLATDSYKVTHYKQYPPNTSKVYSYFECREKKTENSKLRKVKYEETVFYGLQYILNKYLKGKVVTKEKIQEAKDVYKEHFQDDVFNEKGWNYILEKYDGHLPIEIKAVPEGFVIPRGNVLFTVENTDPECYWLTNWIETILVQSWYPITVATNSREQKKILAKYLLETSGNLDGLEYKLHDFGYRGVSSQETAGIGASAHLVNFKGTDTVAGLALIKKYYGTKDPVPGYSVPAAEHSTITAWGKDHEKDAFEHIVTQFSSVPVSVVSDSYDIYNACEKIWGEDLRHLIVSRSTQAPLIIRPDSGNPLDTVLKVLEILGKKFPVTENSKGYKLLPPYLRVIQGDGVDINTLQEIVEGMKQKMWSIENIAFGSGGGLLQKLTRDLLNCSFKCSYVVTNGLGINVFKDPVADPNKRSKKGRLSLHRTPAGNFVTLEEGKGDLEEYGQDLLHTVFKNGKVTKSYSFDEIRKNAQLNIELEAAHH

As to `CCOc1cc(Cl)ccc1S(=O)(=O)c1ccc(NC(=O)/C=C/c2cccnc2)cc1` [(2E)-N-{4-[(4-chloro-2-ethoxybenzene)sulfonyl]phenyl}-3-(pyridin-3-yl)prop-2-enamide], the IC50 in experiment [1] worked out at 4.2 nM; in experiment [2], 9.68 nM.
The like results for `Cc1cc(C(F)(F)F)ccc1S(=O)(=O)c1ccc(NC(=O)/C=C/c2cccnc2)cc1` [(2E)-N-(4-{[2-methyl-4-(trifluoromethyl)benzene]sulfonyl}phenyl)-3-(pyridin-3-yl)prop-2-enamide] were, in that order, 62.8 nM and 100 to 1000 nM.
Regarding `COc1ccc(Cl)cc1S(=O)(=O)c1ccc(NC(=O)/C=C/c2cccnc2)cc1` [(2E)-N-{4-[(5-chloro-2-methoxybenzene)sulfonyl]phenyl}-3-(pyridin-3-yl)prop-2-enamide], the IC50 in experiment [1] turned out to be 4.6 nM; in experiment [2], 12.6 nM.
On the same counts, the results for `COc1ccc(C(C)C)cc1S(=O)(=O)c1ccc(NC(=O)/C=C/c2cccnc2)cc1` [(2E)-N-(4-{[2-methoxy-5-(propan-2-yl)benzene]sulfonyl}phenyl)-3-(pyridin-3-yl)prop-2-enamide] are 2.6 nM and 16.7 nM.
In the case of `Cc1ccccc1S(=O)(=O)c1ccc(NC(=O)/C=C/c2cccnc2)cc1` [(2E)-N-{4-[(2-methylbenzene)sulfonyl]phenyl}-3-(pyridin-3-yl)prop-2-enamide], the half-maximal inhibitory concentration (IC50) is 33.3 nM in experiment [1] and 100 to 1000 nM in experiment [2].
On the same counts, the results for `O=C(/C=C/c1cccnc1)Nc1ccc(S(=O)(=O)c2ccc(Cl)c(Cl)c2)cc1` [(2E)-N-{4-[(3,4-dichlorobenzene)sulfonyl]phenyl}-3-(pyridin-3-yl)prop-2-enamide] are 72.9 nM and 100 to 1000 nM.
Turning to `Cc1ccncc1S(=O)(=O)c1ccc(NC(=O)/C=C/c2cccnc2)cc1` [(2E)-N-[4-(4-methylpyridine-3-sulfonyl)phenyl]-3-(pyridin-3-yl)prop-2-enamide], the IC50 in experiment [1] was 20.4 nM; in experiment [2], 100 to 1000 nM.
For the compound `O=C(/C=C/c1cccnc1)Nc1ccc(S(=O)(=O)c2cc(F)cc(Cl)c2)cc1` [(2E)-N-{4-[(3-chloro-5-fluorobenzene)sulfonyl]phenyl}-3-(pyridin-3-yl)prop-2-enamide], the IC50 in experiment [1] was 124 nM; in experiment [2], 179 nM.
The like results for `Cc1cc(C)n(-c2cccc(S(=O)(=O)c3ccc(NC(=O)/C=C/c4cccnc4)cc3)c2)n1` [(2E)-N-(4-{[3-(3,5-dimethyl-1H-pyrazol-1-yl)benzene]sulfonyl}phenyl)-3-(pyridin-3-yl)prop-2-enamide] were, in that order, 9.1 nM and 31.9 nM.
Consider `CCNC(=O)c1ccc(S(=O)(=O)c2ccc(NC(=O)/C=C/c3cccnc3)cc2)cc1` [N-ethyl-4-({4-[(2E)-3-(pyridin-3-yl)prop-2-enamido]benzene}sulfonyl)benzamide], for which the results for the IC50 in experiment [1] and in experiment [2] were 14.7 nM and 100 to 1000 nM, respectively.
The like results for `Cn1c(S(=O)(=O)c2ccc(NC(=O)/C=C/c3cccnc3)cc2)cc2ccccc21` [(2E)-N-[4-(1-methyl-1H-indole-2-sulfonyl)phenyl]-3-(pyridin-3-yl)prop-2-enamide] were, in that order, 21.8 nM and 100 to 1000 nM.
The like results for `CC(C)NC(=O)c1cccc(S(=O)(=O)c2ccc(NC(=O)/C=C/c3cccnc3)cc2)c1` [N-(propan-2-yl)-3-({4-[(2E)-3-(pyridin-3-yl)prop-2-enamido]benzene}sulfonyl)benzamide] were, in that order, 17.6 nM and 100 to 1000 nM.
The like results for `O=C(/C=C/c1cccnc1)Nc1ccc(S(=O)(=O)c2ccccc2OC(F)(F)F)cc1` [(2E)-3-(pyridin-3-yl)-N-(4-{[2-(trifluoromethoxy)benzene]sulfonyl}phenyl)prop-2-enamide] were, in that order, 3.6 nM and 15.7 nM.
With `CCOc1ccc(S(=O)(=O)c2ccc(NC(=O)/C=C/c3cccnc3)cc2)cc1F` [(2E)-N-{4-[(4-ethoxy-3-fluorobenzene)sulfonyl]phenyl}-3-(pyridin-3-yl)prop-2-enamide], the IC50 in experiment [1] was determined as 34.1 nM; in experiment [2], 175 nM.
On the same counts, the results for `O=C(/C=C/c1cccnc1)NCc1ccc(S(=O)(=O)c2ccccc2)cc1` [(2E)-N-{[4-(benzenesulfonyl)phenyl]methyl}-3-(pyridin-3-yl)prop-2-enamide] are 3 nM and 243 nM.
Take `CCOc1cccc(S(=O)(=O)c2ccc(NC(=O)/C=C/c3cccnc3)cc2)c1` [(2E)-N-{4-[(3-ethoxybenzene)sulfonyl]phenyl}-3-(pyridin-3-yl)prop-2-enamide]: the IC50 was 57.2 nM in experiment [1] and 91.9 nM in experiment [2].
The like results for `COc1cccc(S(=O)(=O)c2ccc(NC(=O)/C=C/c3cccnc3)cc2)c1` [(2E)-N-{4-[(3-methoxybenzene)sulfonyl]phenyl}-3-(pyridin-3-yl)prop-2-enamide] were, in that order, 85.7 nM and 114 nM.
For `O=C(/C=C/c1cccnc1)Nc1ccc(S(=O)(=O)c2ccc(C(F)(F)F)cc2)cc1` [(2E)-3-(pyridin-3-yl)-N-(4-{[4-(trifluoromethyl)benzene]sulfonyl}phenyl)prop-2-enamide], the IC50 is 56.5 nM in experiment [1] and 100 to 1000 nM in experiment [2].
The like results for `O=C(/C=C/c1cccnc1)Nc1ccc(S(=O)(=O)c2ccc(F)cc2)cc1` [(2E)-N-{4-[(4-fluorobenzene)sulfonyl]phenyl}-3-(pyridin-3-yl)prop-2-enamide] were, in that order, 2 nM and 158 nM.
The like results for `Cc1ncccc1S(=O)(=O)c1ccc(NC(=O)/C=C/c2cccnc2)cc1` [(2E)-N-[4-(2-methylpyridine-3-sulfonyl)phenyl]-3-(pyridin-3-yl)prop-2-enamide] were, in that order, 9 nM and 100 to 1000 nM.
As to `COc1cc(S(=O)(=O)c2ccc(NC(=O)/C=C/c3cccnc3)cc2)ccc1Cl` [(2E)-N-{4-[(4-chloro-3-methoxybenzene)sulfonyl]phenyl}-3-(pyridin-3-yl)prop-2-enamide], the IC50 in experiment [1] was 26.3 nM; in experiment [2], 72 nM.
Take `COc1ccc(S(=O)(=O)c2ccc(NC(=O)/C=C/c3cccnc3)cc2)cc1Cl` [(2E)-N-{4-[(3-chloro-4-methoxybenzene)sulfonyl]phenyl}-3-(pyridin-3-yl)prop-2-enamide]: the 50% inhibitory concentration (IC50) in experiment [1] worked out at 5.8 nM; in experiment [2], 123 nM.
The like results for `CCCOc1cccc(S(=O)(=O)c2ccc(NC(=O)/C=C/c3cccnc3)cc2)c1` [(2E)-N-{4-[(3-propoxybenzene)sulfonyl]phenyl}-3-(pyridin-3-yl)prop-2-enamide] were, in that order, 21.6 nM and 86.8 nM.
Take `Cc1ccc(S(=O)(=O)c2ccc(NC(=O)/C=C/c3cccnc3)cc2)cn1` [(2E)-N-[4-(6-methylpyridine-3-sulfonyl)phenyl]-3-(pyridin-3-yl)prop-2-enamide]: in experiment [2], the 50% inhibitory concentration (IC50) was in the range of 100 to 1000 nM.
Still for that read-out and setting: the result for `COc1ccc2cc(S(=O)(=O)c3ccc(NC(=O)/C=C/c4cccnc4)cc3)ccc2c1` [(2E)-N-[4-(6-methoxynaphthalene-2-sulfonyl)phenyl]-3-(pyridin-3-yl)prop-2-enamide] reads 100 to 1000 nM; that for `Cn1ncc2ccc(S(=O)(=O)c3ccc(NC(=O)/C=C/c4cccnc4)cc3)cc21` [(2E)-N-[4-(1-methyl-1H-indazole-6-sulfonyl)phenyl]-3-(pyridin-3-yl)prop-2-enamide], 53 nM.
Still for that read-out and setting: the result for `Cc1cccc(S(=O)(=O)c2ccc(NC(=O)/C=C/c3cccnc3)cc2)c1` [(2E)-N-{4-[(3-methylbenzene)sulfonyl]phenyl}-3-(pyridin-3-yl)prop-2-enamide] reads 93.3 nM.
